pIC50: −log10 of the molar value.
Legend:
[1] = Cell viability (resazurin) on BJ; format: cell-based; conditions: human, BJ cells; for IC50 at 24 h: read-out: 24 h Exposure IC50 (cytotoxicity); for IC50 at 48 h: read-out: 48 h Exposure IC50 (cytotoxicity)
Excerpt: The ARPE-19 cell line was purchased from CLS Cell Lines Service GmbH (Eppelheim, Germany) and cultured in Dulbecco’s modified Eagle’s medium/F-12 (HAM) 1:1 (Biological Industries, Beit, Israel). The medium was supplemented with 10% fetal bovine serum (FBS) (Thermo Fisher Scientific, Waltham, MA, USA) and 1% penicillin-streptomycin (Biosera, Cholet, France). The cancerous cell line A549 was purchased from ATCC (Manassas, VA, USA) and cultivated in high-glucose Dulbecco’s modified Eagle’s medium (DMEM 4.5 g/L). The normal BJ cell line was also purchased from ATCC (Manassas, VA, USA) and was cultivated in low-glucose Dulbecco’s modified Eagle’s medium (DMEM 1 g/L). The media was supplemented in both cases with 10% FBS. Cells were cultured in T75 flasks and incubated at 37 °C in a humidified incubator with 5% CO2 supplementation. For maintenance, the media was changed every 2–3 days, and when the confluence of the flask reached approximately 85%, the cells were either subcultured or further used in the experiments.
ARPE-19 cells were seeded at a density of 2 × 10^4 cells/well and 1 × 10^4 cells/well (suspended in 100 µL) in 96-well plates for 24 h and 48 h, respectively. For the BJ cells, the seeding density was 0.5 × 10^4 cells/well and 0.3 × 10^4 cells/well for 24 h and 48 h, respectively, and for the A549 cells, 1.5 × 10^4 cells/well for 24 h and 0.75 × 10^4 cells/well for 48 h. As cells have different sizes and volumes, the different seeding densities were selected to reach a confluency of 80–90% by the end of the experiments. Cells were further exposed to the synthesized compounds for 24/48 h at concentrations ranging from 12.5 to 500 µM. After the incubation period, the exposure media was removed, the cells were washed with PBS, and further incubated with a 200 µM resazurin solution for 3 h as described in our previous report. The conversion of resazurin to the fluorescent resorufin compound by viable cells was measured at λexcitation = 550; λemission = 600, using SpectraMax iD3 (Molecular Devices, San Jose, CA, USA). The experiments were conducted in biological triplicate, each with a minimum of 3 technical replicates. The measured viability was expressed as relative values to the control (cells exposed only to the vehicle–culture medium containing 0.4% DMSO).

[2] = Indirect 1O2 scavenging assay (ICG photo-generator, DPBF probe); conditions: 10^−5 M ICG and scavenger, 785 nm laser, 100 s
Method: The ^1O2 scavenging assay was employed using a previously established indirect protocol from our research group. In brief, indocyanine green (ICG), from Sigma–Aldrich (St. Louis, MO, USA), was utilized to induce ^1O2 production in the presence of 5a and 5b. Ascorbic acid was used as a reference antioxidant agent, and a blank sample without ^1O2 scavengers was prepared. The reaction mixtures were exposed to a Micro Raman System R-3000 (Photonitech, Singapore, Singapore) laser diode,(λ = 785 nm, 190 mW power) for a total time of 100 s. To evaluate the ^1O2 scavenging activity of the compounds 5a,b, the degradation of 1,3-diphenylisobenzofuran (DPBF), obtained from Alfa Aesar (Haverhill, MA, USA), was measured using a V-730 spectrophotometer (Jasco International Co., Ltd., Tokyo, Japan). To determine the ^1O2 quantum yields (Φ(^1O2)) of ICG in the presence of the studied molecules, the following equation was used: Φ(^1O2) = Φ(^1O2) ^ICG × ((S × F^ICG)/(S^ICG × F)), where S represents the slope of the absorbance difference of DPBF over time, F is the absorption correction factor (F = 1 − 10^−OD), and OD is the optical density at the excitation wavelength, λ = 785 nm. The Φ(^1O2) equal to 15.0% of free ICG was used as a reference. The concentrations utilized in the experiment were 0.1 mM for DPBF and 10^−5 M for ICG and the ^1O2 scavengers. Free DPBF was used as a control.
The efficacy of compounds 5a,b against ^1O2 was assessed using an indirect approach. ICG was used as a photo-induced ^1O2 generator alongside DPBF, serving as an indirect chemical probe capable of characterizing ^1O2 release in solution. This setup allowed us to evaluate the ^1O2 scavenging capacity of the tested molecules and compare their activity to a reference compound, specifically ascorbic acid. The samples were exposed to 785 nm laser radiation, and at 10-s intervals after irradiation, their UV-Vis absorption spectra were measured and analyzed (Figure 9). Subsequently, we determined the ^1O2 quantum yields (Φ(^1O2)) of ICG in the presence of 5a,b and ascorbic acid, using the Φ(^1O2) of free ICG of 15.0% as reference.

[3] = ABTS radical cation decolorization assay; conditions: 10 min incubation, pH 7.4, λ = 734 nm
Method: The ABTS^•+ (2,2′-azinobis-(3-ethylbenzothiazoline-6-sulfonic acid) decolorization assay, based on the method of Re et al., was performed in the concentration range of 1 to 25 µM according to protocols previously reported by our group. The reagent was prepared in a 0.1 M potassium phosphate buffer (pH 7.4) and activated overnight with MnO2 [89]. Prior to use, the stability of the ABTS^•+ reagent was verified by checking its absorbance at λ = 734 nm over one hour, ensuring a consistent absorption of around 0.7. The mixtures were incubated for 10 min in the dark at room temperature. The absorbance of the samples is given by the remaining unreacted reagent radical, and it is inversely proportional to the amount of ABTS^•+ neutralized. The ABTS^•+ scavenging activity of compounds was calculated using Equation (2).(2) ABTS^•^+ scavenging (%)=control absorbance−sample absorbance/control absorbance×100

[4] = system: rat microsomal membrane lipid peroxidation; assay: Lipid peroxidation inhibition assay (LPI), 2-thiobarbituric acid method; format: biochemical; conditions: for pIC50: ascorbic acid/Fe^2+ system, 37 °C, 45 min
Method: Rat liver microsomes were homogenized in saline, and the resulting homogenates were centrifuged at 9000× g for 20 min at 4 °C to remove cell debris. The supernatant underwent ultracentrifugation at 110,000× g for 40 min at 4 °C. The pelleted microsomal fraction was subsequently washed with saline via another round of ultracentrifugation under identical conditions. Thereafter, the pellet was resuspended in Tris-HCl buffer (pH 7.4) to achieve a concentration equivalent to 0.5 g liver per mL and was stored until further analysis (at −80 °C). For the assay, the microsomal preparation was thermally inactivated by incubation at 90 °C for 90 s, then homogenized again and diluted to a final concentration equivalent to 4 mM fatty acid equivalents. […] All mixtures were incubated at 37 °C under air with continuous shaking. […] This was followed by heating at 90 °C for 20 min and centrifugation at 3000 rpm for 15 min. As a result of the breakdown of unsaturated fatty acids, malondialdehyde reacts with the 2-thiobarbituric acid to produce a pink compound due to the formation of a Schiff base. The extent of lipid peroxidation was measured spectrophotometrically at 535/600 nm, which is proportional to the amount of the chromogen reaction product formed between 2-thiobarbituric acid and malondialdehyde. The determinations were performed in triplicate, and the standard deviation was within ±10% of the mean value.

Structure (SMILES)	IC50 at 24 h [1]	IC50 at 48 h [1]	^1O2 quantum yield Φ(^1O2) of ICG in the presence of the scavenger [2]	pIC50 [3]	fold more active than Trolox in lipid peroxidation inhibition [4]	pIC50 [4]
C/C=C/C=N/Nc1nc(-c2ccc(O)c(O)c2)cs1.Cl [Compound 5a, 4-(2-(2-((1E,2E)-but-2-en-1-ylidene)hydrazineyl)thiazol-4-yl)benzene-1,2-diol hydrochloride]	144 µM	162 µM	11.1%	5.33	approximately 7.5 fold	5.48
CC1=C(/C=C/C(C)=N/Nc2nc(-c3ccc(O)c(O)c3)cs2)C(C)(C)CCC1.Cl [Compound 5b, 4-(2-(2-((2E,3E)-4-(2,6,6-trimethylcyclohex-1-en-1-yl)but-3-en-2-ylidene) hydrazineyl)thiazol-4-yl)benzene-1,2-diol hydrochloride]	141 µM	152 µM	11%	5.30	–	4.89

— publication PMC12189671, “Antioxidant Activity and Cytotoxicity Evaluation of New Catechol Hydrazinyl-Thiazole Derivatives as Potential Protectors in Retinal Degenerative Processes” (Antioxidants, 2025)
